In patent US20230027066A1 (Urovant Sciences GmbH, priority 2019, published 2023):
Read-outs that look alike come from different tables or passages of the source.

What was measured:
[1] = Excerpt: A placebo group was included in the main study, and a group that received tolterodine monotherapy was included in the main study and in the extension.
[2] = Phase 2b study, vital sign (HR, SBP, DBP) changes and orthostatic AEs; format: in vivo, human
Excerpt: None led to discontinuation. The overall incidence of orthostatic symptoms was low.
Small differences in the percent of subjects exceeding categorical heart rate and blood pressure thresholds for vibegron were similar to those in the tolterodine arm.

[3] = Phase 1 multiple-dose study in healthy subjects, maximum MA4 heart rate; format: in vivo, human; conditions: for Maximum MA4 HR (maximum change from baseline in moving average of heart rate over 4 hours postdose), LS mean (90% CI) / Maximum MA4 HR, difference from placebo (90% CI): Day 14
Protocol: More intensive assessments of heart rate and blood pressure were performed in healthy volunteers in several Phase 1 studies. […] Doses ranged from 25 to 400 mg once daily for 7 to 28 days depending on the cohort. Least squares mean and 90% confidence intervals of maximum change from baseline in moving average of heart rate over 4 hours postdose (MA4 HR) are presented in Table 7.

[4] = ABPM study, adverse events; format: in vivo, human; conditions: 75 mg, 28 days
Protocol: Safety was evaluated by assessment of clinical laboratory tests, physical examinations, and vital signs measurements from office visits at various time points during the study, and by the documentation of AEs.
Safety Set (SAF): All subjects who received at least one dose of double-blind study treatment were included in the SAF. Subjects were included in the treatment group corresponding to the Study Treatment that was actually received. This was the population used to summarize safety analyses collected during clinic visits and correspondence with site staff; summarization of baseline/demographic characteristics also presented for the SAF.

[5] = Phase 1 program safety (16 Phase 1 studies); format: in vivo; conditions: single doses 2 to 600 mg, multiple doses 25 to 400 mg up to 28 days
Excerpt: Safety data from 16 Phase 1 studies, which include 15 completed Phase 1 studies and 1 study that was terminated early (this study was terminated for reasons unrelated to efficacy or safety) was collected.

[6] = dose-Cmax and dose-AUC models / log-log regression from Phase 1 data
Protocol: In order to contextualize PK parameters of a 75 mg dose, dose-Cmax and dose-AUC models were created using data from Phase 1 studies.

CYP2D6 [7] = target: T1, CYP2D6 (Homo sapiens, UniProt P10635); assay: drug interaction study of vibegron and tolterodine (sensitive CYP2D6 substrate); conditions: vibegron 100 mg QD at steady state
T1 sequence (P10635 whole entry): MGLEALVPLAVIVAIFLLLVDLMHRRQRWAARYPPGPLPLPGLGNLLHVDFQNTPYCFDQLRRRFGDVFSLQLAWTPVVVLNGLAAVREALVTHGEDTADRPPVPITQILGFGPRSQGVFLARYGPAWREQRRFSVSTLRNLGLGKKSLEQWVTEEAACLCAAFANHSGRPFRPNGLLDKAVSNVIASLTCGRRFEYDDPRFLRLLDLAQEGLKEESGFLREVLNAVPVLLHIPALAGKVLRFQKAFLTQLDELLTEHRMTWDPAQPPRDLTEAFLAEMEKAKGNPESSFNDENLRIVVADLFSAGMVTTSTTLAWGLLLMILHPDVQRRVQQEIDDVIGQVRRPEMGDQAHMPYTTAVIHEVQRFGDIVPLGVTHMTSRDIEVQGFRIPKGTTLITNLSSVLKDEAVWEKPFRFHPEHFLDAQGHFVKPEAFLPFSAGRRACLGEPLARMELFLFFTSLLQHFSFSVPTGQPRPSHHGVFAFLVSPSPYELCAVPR

CYP2D6 [8] = target: T1, CYP2D6; assay: clinical; conditions: in vivo, 4 mg
[9] = estimated 75 mg vs 200 mg single dose
[10] = estimated 75 mg vs 400 mg single dose

## O=C(Nc1ccc(C[C@@H]2CC[C@H]([C@H](O)c3ccccc3)N2)cc1)[C@@H]1CCc2nccc(=O)n21 [Vibegron, (6S)-N-[4-[[(2S,5R)−5-[(R)-hydroxy(phenyl)methyl]pyrrolidin−2-yl]methyl]phenyl]−4-oxo−7,8-dihydro−6H-pyrrolo[1,2-a]pyrimidine−6-carboxamide]
[1]; human, in vivo
  frequency of injuries: 0.9%
[1]; vibegron 3 mg
  Accidental overdose: 3 (2.1) n (%)
[1]; vibegron 15 mg
  Accidental overdose: 6 (4.5) n (%)
[1]; vibegron 50 mg
  Accidental overdose: 4 (2.7) n (%)
[1]; vibegron 100 mg
  Accidental overdose: 11 (4.2) n (%)
[2]; vibegron 3 mg
  DBP change from baseline, mean (95% CI) maximum, week 1 to 8: 5.03 (3.92, 6.15) mm Hg
  DBP change from baseline, mean (95% CI), week 1: −0.37 (−1.69, 0.95) mm Hg
  HR change from baseline, mean (95% CI) maximum, week 1 to 8: 5.57 (4.25, 6.90) bpm
  HR change from baseline, mean (95% CI), week 1: 0.36 (−0.90, 1.62) bpm
  SBP change from baseline, mean (95% CI) maximum, week 1 to 8: 7.14 (5.18, 9.10) mm Hg
  SBP change from baseline, mean (95% CI), week 1: −0.35 (−2.34, 1.65) mm Hg
[2]; vibegron 15 mg
  DBP change from baseline, mean (95% CI) maximum, week 1 to 8: 6.37 (5.20, 7.53) mm Hg
  DBP change from baseline, mean (95% CI), week 1: 0.03 (−1.52, 1.59) mm Hg
  HR change from baseline, mean (95% CI) maximum, week 1 to 8: 6.56 (5.20, 7.92) bpm
  HR change from baseline, mean (95% CI), week 1: 0.35 (−1.15, 1.85) bpm
  SBP change from baseline, mean (95% CI) maximum, week 1 to 8: 8.93 (7.18, 10.67) mm Hg
  SBP change from baseline, mean (95% CI), week 1: −0.34 (−2.46, 1.78) mm Hg
  subjects with orthostatic related AEs: 0.3%
[2]; vibegron 50 mg
  DBP change from baseline, mean (95% CI) maximum, week 1 to 8: 4.19 (3.10, 5.29) mm Hg
  DBP change from baseline, mean (95% CI), week 1: −0.70 (−2.07, 0.67) mm Hg
  HR change from baseline, mean (95% CI) maximum, week 1 to 8: 5.49 (4.28, 6.69) bpm
  HR change from baseline, mean (95% CI), week 1: 0.29 (−0.88, 1.46) bpm
  SBP change from baseline, mean (95% CI) maximum, week 1 to 8: 7.01 (5.31, 8.70) mm Hg
  SBP change from baseline, mean (95% CI), week 1: −0.79 (−2.65, 1.08) mm Hg
[2]; vibegron 50 mg and 100 mg
  SBP and DBP, difference between placebo and vibegron in mean changes at Week 1 and mean maximum changes over 8 weeks: < 1 mm Hg
[2]; vibegron 100 mg
  DBP change from baseline, mean (95% CI) maximum, week 1 to 8: 4.80 (3.88, 5.72) mm Hg
  DBP change from baseline, mean (95% CI), week 1: −0.69 (−1.72, 0.34) mm Hg
  HR change from baseline, mean (95% CI) maximum, week 1 to 8: 6.12 (5.10, 7.15) bpm
  HR change from baseline, mean (95% CI), week 1: 0.35 (−0.69, 1.38) bpm
  SBP change from baseline, mean (95% CI) maximum, week 1 to 8: 6.51 (5.09, 7.93) mm Hg
  SBP change from baseline, mean (95% CI), week 1: −0.77 (−2.22, 0.68) mm Hg
  percent of subjects with a change from baseline in DBP >15 mmHg: 1.3%
  subjects with orthostatic related AEs: 1.1%
[2]; vibegron, all doses
  HR, mean maximum changes over 8 weeks, difference to placebo: < 2 bpm
[3]; vibegron 25 mg once daily
  Maximum MA4 HR (maximum change from baseline in moving average of heart rate over 4 hours postdose), LS mean (90% CI): 1.47 (−3.24, 6.17) bpm
  Maximum MA4 HR, difference from placebo (90% CI): −1.60 (−7.09, 3.88) bpm
[3]; vibegron 50 mg once daily
  Maximum MA4 HR (maximum change from baseline in moving average of heart rate over 4 hours postdose), LS mean (90% CI): 1.50 (−2.79, 5.79) bpm
  Maximum MA4 HR, difference from placebo (90% CI): −1.57 (−6.70, 3.56) bpm
[3]; vibegron 100 mg
  maximum MA4 HR, difference from placebo: < 1 bpm
[3]; vibegron 100 mg once daily
  Maximum MA4 HR (maximum change from baseline in moving average of heart rate over 4 hours postdose), LS mean (90% CI): 3.28 (−1.02, 7.57) bpm
  Maximum MA4 HR, difference from placebo (90% CI): 0.21 (−4.93, 5.34) bpm
[3]; vibegron 150 mg once daily
  Maximum MA4 HR (maximum change from baseline in moving average of heart rate over 4 hours postdose), LS mean (90% CI): 3.17 (−1.13, 7.46) bpm
  Maximum MA4 HR, difference from placebo (90% CI): 0.10 (−5.04, 5.23) bpm
[3]; vibegron 200 mg once daily
  Maximum MA4 HR (maximum change from baseline in moving average of heart rate over 4 hours postdose), LS mean (90% CI): 5.67 (0.96, 10.37) bpm
  Maximum MA4 HR, difference from placebo (90% CI): 2.60 (−2.89, 8.08) bpm
[3]; vibegron 300 mg once daily
  Maximum MA4 HR (maximum change from baseline in moving average of heart rate over 4 hours postdose), LS mean (90% CI): 9.06 (4.76, 13.35) bpm
  Maximum MA4 HR, difference from placebo (90% CI): 5.98 (0.85, 11.12) bpm
[3]; vibegron 400 mg once daily
  Maximum MA4 HR (maximum change from baseline in moving average of heart rate over 4 hours postdose), LS mean (90% CI): 10.33 (6.04, 14.63) bpm
  Maximum MA4 HR, difference from placebo (90% CI): 7.26 (2.13, 12.39) bpm
[4]; Randomized N = 106
  Discontinued the study: Adverse Event, subjects n: 2
[4]; Safety N = 106
  AECIs: 8 (7.5) n (%)
  AEs Leading to Treatment Discontinuation: 3 (2.8) n (%)
  Adverse event: Blood pressure increased: 0 n (%)
  Adverse event: Constipation: 2 (1.9) n (%)
  Adverse event: Diarrhea: 3 (2.8) n (%)
  Adverse event: Dry mouth: 3 (2.8) n (%)
  Adverse event: Fatigue: 3 (2.8) n (%)
  Adverse event: Haematuria: 3 (2.8) n (%)
  Adverse event: Headache: 4 (3.8) n (%)
  Adverse event: Hypertension: 5 (4.7) n (%)
  Adverse event: Hypotension: 1 (0.9) n (%)
  Adverse event: Increased residual urine: 0 n (%)
  Adverse event: Nasopharyngitis: 3 (2.8) n (%)
  Adverse event: Nausea: 3 (2.8) n (%)
  Adverse event: Tachycardia: 0 n (%)
  Adverse event: Upper respiratory tract infection: 5 (4.7) n (%)
  Adverse event: Urinary retention: 1 (0.9) n (%)
  Adverse event: Urinary tract infection: 3 (2.8) n (%)
  Fatal adverse event: 0 n (%)
  Serious adverse event (SAE): 1 (0.9) n (%)
  Treatment emergent Adverse event (AE): 49 (46.2) n (%)
  Treatment-related AECIs: 3 (2.8) n (%)
  Treatment-related SAE by the investigator: 0 n (%)
[5]
  tolerability across the Phase 1 program: generally well tolerated
[6]; [9]
  AUC of 75 mg dose lower than 200 mg single dose: ~2 fold
  Cmax of 75 mg dose lower than 200 mg single dose: approximately 3.3 fold
[6]; [10]
  AUC of 75 mg dose lower than 400 mg single dose: ~6 fold
  Cmax of 75 mg dose lower than 400 mg single dose: ~9.2 fold
[6]; vibegron 50 vs 100 mg
  increase in Cmax with increase in dose from 50 to 100 mg: ~3 fold
[6]; vibegron 75 vs 100 mg
  reduction in Cmax with a 25% reduction in dose (100 mg to 75 mg): ~40%
CYP2D6 [7]
  inhibition of CYP2D6 (conclusion from tolterodine interaction study): does not inhibit CYP2D6

## Cc1ccc(O)c([C@H](CCN(C(C)C)C(C)C)c2ccccc2)c1 [Tolterodine ER, tolterodine, reference compound]
[1]; Phase 2 study, tolterodine arm vs vibegron
  frequency of injuries: 2.1%
[1]; tolterodine 4 mg, main study
  SAEs reported in treatment group, number: 3
[1]; tolterodine ER 4 mg
  Accidental overdose: 6 (2.3) n (%)
  Alanine aminotransferase increased: 1 (0.4) n (%)
  Arthralgia: 3 (1.2) n (%)
  Aspartate aminotransferase increased: 0 (0.0) n (%)
  Constipation: 5 (1.9) n (%)
  Diarrhea: 9 (3.5) n (%)
  Discontinuation due to AE: 4 (1.6) n (%)
  Discontinuation due to drug-related AE: 0 n (%)
  Dizziness: 5 (1.9) n (%)
  Drug-related AE: 42 (16.3) n (%)
  Dry eye: 10 (3.9) n (%)
  Dry mouth: 22 (8.6) n (%)
  Dysuria: 3 (1.2) n (%)
  Fatigue: 6 (2.3) n (%)
  Headache: 9 (3.5) n (%)
  Nasopharyngitis: 4 (1.6) n (%)
  Nausea: 6 (2.3) n (%)
  Osteoarthritis: 0 (0.0) n (%)
  Pain in extremity: 1 (0.4) n (%)
  Serious AE: 3 (1.2) n (%)
  Sinusitis: 1 (0.4) n (%)
  Subjects with ≥1 AE: 116 (45.1) n (%)
  Urinary tract infection: 12 (4.7) n (%)
[2]; tolterodine 4 mg
  DBP change from baseline, mean (95% CI) maximum, week 1 to 8: 5.19 (4.26, 6.13) mm Hg
  DBP change from baseline, mean (95% CI), week 1: −0.12 (−1.10, 0.86) mm Hg
  HR change from baseline, mean (95% CI) maximum, week 1 to 8: 5.66 (4.69, 6.63) bpm
  HR change from baseline, mean (95% CI), week 1: 0.68 (−0.31, 1.67) bpm
  SBP change from baseline, mean (95% CI) maximum, week 1 to 8: 7.29 (6.01, 8.57) mm Hg
  SBP change from baseline, mean (95% CI), week 1: 0.04 (−1.36, 1.43) mm Hg
CYP2D6 [8]
  AUC(0-t): 28.4 ng·h/mL
  half-life: 10 h
